Residues, ends and D or L forms follow the SMILES beside them. *: point of attachment. Boc = CC(C)(C)OC(=O)*
Key:
[1] = tested on: SDU70-ΔcorA; assay: Agglutination assay in liquid culture; format: cell-based, Corallococcus exiguus; conditions: for dose dependence of flocculation/agglutination: 1~50 mg/L; for ability to induce agglutination (SAR): each compound added at 5 mg/L
Method: (§1) The agglutination assay basically followed the method described by Velicer.[62] Briefly, DK1622 strains were cultured in CTT medium, whereas SDU70 strains were cultured in VY/2 medium. The aggregation-inducing compounds were added together with the initial inocula. After 3 days of growth, ∼2 mL of liquid cultures (in logarithmic growth stage) were transferred into cuvettes. Samples were left static for 15 min to visualize the clumping phenomenon. To plot the agglutination curves, the absorbance readings (600 nm) were measured on a UV-8000 spectrophotometer at differential intervals within 4 h. Decreasing the absorbance represents the settling of agglutinated cell clumps. Data points are the means of three replicates per strain.

[2] = tested on: SDU70-ΔcorA-corB; assay: Agglutination assay of corB-overexpression mutant; format: cell-based, Corallococcus exiguus; conditions: for morphology on induction: 5 mg/L; for clumping: as high as 50 mg/L
Method: as §1

[3] = tested on: SDU70-corB; assay: Agglutination assay of corB-overexpression mutant; format: cell-based, Corallococcus exiguus; conditions: as high as 50 mg/L
Method: as §1

[4] = tested on: DK1622-wt; assay: Agglutination assay in liquid culture; format: cell-based, Myxococcus xanthus; conditions: for dose dependence of flocculation/agglutination: 1~50 mg/L; for ability to induce agglutination (SAR): each compound added at 5 mg/L
Method: as §1

[5] = tested on: DK1622-corB; assay: Agglutination assay of corB-overexpression mutant; format: cell-based, Myxococcus xanthus; conditions: for agglutination induced by exogenous addition, in corB-overexpressing strain: 5 mg/L; for threshold concentration causing visible flocculation of DK1622-corB relative to DK1622-wt: 1 or 1b′ (Figures S12–S14)
Method: as §1

[6] = target: cathepsin L (Homo sapiens, UniProt P07711); assay: Protease inhibition assay (z-FR-AMC proteolysis); format: biochemical; conditions: compounds 0~500 μM, pre-incubated 60 min at 37 °C, pH 5.5; read-out: inhibition activity against protease cathepsin L, IC50
cathepsin L, sequence (P07711 114-333, species assumed): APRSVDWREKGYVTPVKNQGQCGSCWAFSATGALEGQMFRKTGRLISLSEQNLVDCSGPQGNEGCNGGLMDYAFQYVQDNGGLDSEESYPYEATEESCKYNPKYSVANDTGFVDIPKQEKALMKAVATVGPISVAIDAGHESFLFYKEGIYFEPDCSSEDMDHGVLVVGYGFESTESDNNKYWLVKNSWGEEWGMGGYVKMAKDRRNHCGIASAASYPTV
Method: (§2) The white needle crystals of 2 were obtained from MeOH solvent by slowly volatilizing in a glass vial under ambient condition. The X-ray diffraction measurement of crystals basically followed our previously published method.1 The crystallographic data for 2 was summarized […]6, and deposited in CCDC database under the access number 2278050. Antibacterial Assay. The antibacterial assay was performed by agar diffusion method.2 Single colony of Gram-positive bacteria Staphylococcus aureus, Gram-negative bacterium Acinetobacter baumannii, and fungus Candida albicans were picked and inoculated into 8 mL of LB liquid medium for overnight growth at 37 °C, respectively. Next day, the cultures were 100-fold diluted to 1x10^7 CFU/mL with fresh LB liquid medium, to grow at 37 °C until OD600 0.4~0.6. Compounds 1 and 2 were dissolved […] The disks were then placed onto an agar plate containing a soft agar overlay with the indicator microorganisms. […] MES, 5 mM DTT, pH 5.5) was detected by proteolysis of fluorescent substrate z-FR-AMC. […] The absorbance was measured by microplate reader (Spectra max GEMINI XPS, excitation wavelength 380 nm, emission wavelength 460 nm). […] The mixture was centrifuged at 12000 rpm for 20 minutes, and the supernatant was subsequently analyzed HPLC-DAD. […] The resulting samples were collected by capillary tubes and analyzed by Microscale Thermophoresis (Monolith NT.115). […]

[7] = tested on: CorB; assay: MST assay of CorB to coralinone A; format: binding, Corallococcus exiguus SDU70; conditions: 15.2 μM to 0.5 mM test compound
Method: as §2

[8] = tested on: Candida albicans; assay: Agar diffusion assay against fungus; format: cell-based; conditions: 50 μg/disc
Method: as §2

[9] = tested on: four human cell lines; assay: Antiproliferative activity, summary statement; format: cell-based; conditions: four human cell lines (Table S2)
[10] = tested on: DK1622; assay: Confocal laser scanning microscopy of cells and EPS; format: cell-based, Myxococcus xanthus; conditions: DK1622+1
Method: The microscopic observation of SDU70 and DK1622 basically followed our recently published methods.[63]Scanning electron microscopy (SEM): DK1622 and SDU70 strains (wild type and mutants) were grown to logarithmic stage. The cells were washed three times with 1× PBS buffer and then fixed overnight at 4 °C in 2.5% glutaraldehyde solution. Samples were prepared using the standard ethanol dehydration method,[62] and observed by QUANTA FEG250 scanning electron microscope (Thermo Fisher Scientific, USA). Confocal laser scanning microscopy (CLSM): DK1622 strains were grown in CTT liquid medium for 24 h, while SDU70 strains were grown in VY/2 medium for 72 h. The presence of EPS, eDNA dead cells, and alive cells were labeled with Alexa 350-labeled wheat germ lectin (WGA), SYTOX Orange, and STYO 9, respectively. The images were taken on LSM 900 CLSM (Zeiss, Germany), using 63× oil immersed objective lens. The CLSM images were captured by ZEN software (Zeiss, Germany) and exported by using ImageJ software.

[11] = Cytotoxic activity on human cell lines; format: cell-based; conditions: HepG2 hepatocarcinoma cells, mean value of three replicates
[12] = Cytotoxic activity on human cell lines; format: cell-based; conditions: PC3 prostatic carcinoma cells, mean value of three replicates
[13] = tested on: Acinetobacter baumannii; assay: Antibacterial assay, agar diffusion method; format: cell-based; conditions: 50 μg/disc
Method: (§3) The white needle crystals of 2 were obtained from MeOH solvent by slowly volatilizing in a glass vial under ambient condition. The X-ray diffraction measurement of crystals basically followed our previously published method.1 The crystallographic data for 2 was summarized […]6, and deposited in CCDC database under the access number 2278050. Antibacterial Assay. The antibacterial assay was performed by agar diffusion method.2 Single colony of Gram-positive bacteria Staphylococcus aureus, Gram-negative bacterium Acinetobacter baumannii, and fungus Candida albicans were picked and inoculated into 8 mL of LB liquid medium for overnight growth at 37 °C, respectively. Next day, the cultures were 100-fold diluted to 1x10^7 CFU/mL with fresh LB liquid medium, to grow at 37 °C until OD600 0.4~0.6. Compounds 1 and 2 were dissolved […] The disks were then placed onto an agar plate containing a soft agar overlay with the indicator microorganisms. Kanamycin (for S. aureus) and apramycin (for C. albicans and E. coli) at a concentration of 1 mg/mL were used as positive controls, and the solvent methanol as the negative control. […] Protease inhibition assay. […] MES, 5 mM DTT, pH 5.5) was detected by proteolysis of fluorescent substrate z-FR-AMC. Enzyme was pre- incubated with a gradient concentration (0~500 μM) of compounds for 60 min at 37 °C in a black 96-well plate. Then, 20 μM of z-FR-AMC was added to each well to make up 200 μ[…] , and the reaction continued for another 30 min. The absorbance was measured by microplate reader (Spectra max GEMINI XPS, excitation wavelength 380 nm, emission wavelength 460 nm). The protease inhibitor E-64 was used as positive control and DMSO was the negative control. All the experiments were completed in triplicate. Enzymatic cleavage of 1 and 1b' using CorB. The reaction was conducted in a 50 μL system comprising of 20 mM Tris-HCl buffer (pH 7.5), 150 mM NaCl, 0.22 mM CorB, and 0.05 mg 1, or 1b' (dissolved in DMSO) respectively. Tris-HCl buffer was used as a negative control, and all experiments were repeated in triplicates. The reactions were incubated at 37 °C for 12 hours and then terminated by adding 50 μL of MeOH. The mixture was centrifuged at 12000 rpm for 20 minutes, and the supernatant was subsequently analyzed HPLC-DAD. MST assay. The purified CorB was mixed with an equal volume of RED-tris-NTA dye solution and incubated in the dark for 30 min, centrifuged at 12000 rpm, 4 °C for 10 min. Then, 10 μL of the CorB-dye complex was mixed with an equal volume of test compound solution ranging from 15.2 μM to 0.5 mM. The resulting samples were collected by capillary tubes and analyzed by Microscale Thermophoresis (Monolith NT.115). 4

[14] = tested on: Staphylococcus aureus; assay: Antibacterial assay, agar diffusion method; format: cell-based; conditions: 50 μg/disc
Method: as §3

[15] = tested on: DK1622-wt; assay: Trypan blue binding assay of EPS production; format: cell-based, Myxococcus xanthus; conditions: DK1622-wt supplemented with 5 mg/L
Method: Exopolysaccharide (EPS) production was measured according to the method published by Black et al.[64] Briefly, wild type and mutant strains of DK1622 were inoculated in liquid CTT medium and incubated for 24 h at 30 °C and 200 rpm. The cells grown to the logarithmic phase were collected by centrifugation, and the supernatants were discarded. Cells were resuspended and adjusted to a density of 5 × 10^8 CFU/mL with TPM buffer (1.97 g/L MgSO4·7H2O, 1 M Tris-HCl, 10 mL 0.1 M PBS, pH 7.6). Next, the cell suspension was evenly mixed with an equal volume of Trypan Blue dye solution (150 μg/mL), and TPM buffer was used as a blank control. The supernatant was centrifuged at 12000 rpm for 5 min, and 200 μL was used for the absorbance measurement at 585 nm. Each experiment was performed in triplicate.

[16] = Cytotoxic activity on human cell lines; format: cell-based; conditions: A549 lung carcinoma cells, mean value of three replicates
[17] = Cytotoxic activity on human cell lines; format: cell-based; conditions: KYSE410 esophageal squamous carcinoma cells, mean value of three replicates

SMILES	dose dependence of flocculation/agglutination [1]	ability to induce agglutination (SAR) [1]	morphology on induction [2]	clumping [2]	clumping [3]	dose dependence of flocculation/agglutination [4]	ability to induce agglutination (SAR) [4]	agglutination induced by exogenous addition, in corB-overexpressing strain [5]	threshold concentration causing visible flocculation of DK1622-corB relative to DK1622-wt [5]	growth inhibition [8]	antiproliferative activities [9]	IC50 [11]	IC50 [12]	growth inhibition [13]	growth inhibition [14]	IC50 [16]	IC50 [17]	also measured
CC(=O)[C@@H](NC(=O)[C@H](CC(C)C)NC(=O)OC(C)(C)C)C(C)C [1b′]	dose-dependent manner	effective	maintained the dispersed morphology	did not clump	did not clump	dose-dependent manner	effective	substantially abated agglutination	3–4 times									
CC(C)C[C@H](NC(=O)OC(C)(C)C)C(=O)N[C@H](C=O)C(C)C [10b′] (Boc-Leu-Val-aldehyde)																		IC50 [6]: 0.23 µM
Cc1nc(CC(C)C)c(=O)[nH]c1C(C)C [compound 1, coralinone A]	dose-dependent manner	effective	maintained the dispersed morphology	did not clump	did not clump	dose-dependent manner	effective	substantially abated agglutination	3–4 times	No growth inhibition	Neither 1 nor 2 showed any significant antiproliferative activities	892 µM	796 µM	No growth inhibition	No growth inhibition	383 µM	463 µM	binding to CorB (MST) [7]: did not disturb CorB-dye binding; flocculation at 5 mg/L in dose series ([1]; 5 mg/L): severe flocculation; restoration of pellet morphogenesis by chemical complementation ([1]; 5 mg/L, shaken liquid culture): restored; concentration that started to be active in causing flocculation ([1]; dose series 1~50 mg/L): 2 mg/L; EPS production (Alexa 350-WGA blue signal in Merge photos) [10]: higher production of EPS; flocculation at 5 mg/L in dose series ([4]; 5 mg/L): severe flocculation; flocculation on exogenous supplementation ([4]; 5 mg/L, liquid culture): led to flocculation; concentration that started to be active in causing flocculation ([4]; dose series 1~50 mg/L): 2 mg/L; EPS production [15]: cumulation of EPS
CC[C@H](C)c1[nH]c(=O)c(CC(C)C)nc1C [compound 2, coralinone B]										No growth inhibition	Neither 1 nor 2 showed any significant antiproliferative activities	504 µM	432 µM	No growth inhibition	No growth inhibition	145 µM	312 µM	
CC(=O)O[C@@]12CO[C@@H]1C[C@H](O)[C@@]1(C)C(=O)[C@H](O)C3=C(C)[C@@H](OC(=O)[C@H](O)[C@@H](NC(=O)OC(C)(C)C)c4ccccc4)C[C@@](O)([C@@H](OC(=O)c4ccccc4)[C@H]21)C3(C)C [Docetaxel, reference compound]												10.3 µM	71.9 µM			33.1 µM	17.8 µM	

Source: PMC10979478, “Deciphering the Biosynthesis and Physiological Function of 5-Methylated Pyrazinones Produced by Myxobacteria” (ACS Central Science, 2024)
